The source of these data is PMC6407578, “Synthesis and biological evaluation of ursolic acid derivatives bearing triazole moieties as potential anti-Toxoplasma gondii agents” (Journal of Enzyme Inhibition and Medicinal Chemistry, 2019).

Like-named read-outs stand apart in the source and are kept apart here.

The test system of one series is T. gondii. On the set-up: method as in PMID 25288090. The conditions noted are these: cited from earlier work.
For another series, the system named is HeLa cells. The experiment in a line: Cytotoxicity on HeLa host cells (MTT). To be noted: median toxicity dose, cytotoxicity against host cells, 24 h. It is filed as cell-based. The method, then:
(§1) The cytotoxicity of compounds was determined using the previously published thiazolyl blue-based colorimetric method. For this, HeLa cells were used as host cells and their ability to resist invasion by T. gondii RH strain tachyzoites in vitro was checked. The cells were plated in 96-well plates at an appropriate density to ensure exponential growth throughout the experimental period (3 × 10^3 cells per well) and then allowed to adhere for 24 h at 37 °C. The cells were infected with T. gondii (1.5 × 10^4 tachyzoites/well), followed by incubation for 24 h. All compounds were prepared in dimethyl sulfoxide (DMSO) at a stock concentration of 100 mM. Serial dilutions (1–1000 μM) of each compound were tested. Spiramycin was used as a positive control. After 24 h of incubation, 10 μL of MTT solution were added to each well and cells were incubated for a further 2 h. The optical density (OD) was read on a microplate reader at a wavelength of 492 nm. The IC50 in HeLa cells, IC50 in T. gondii and selectivity index were calculated using Microsoft Excel.

Series [1] is described as follows: Liver/spleen indexes, serum ALT/AST, liver MDA/GSH in T. gondii-infected KM mice. The conditions noted are these: 100 mg/kg; for spleen index: effect on the infection-induced increase, not statistically significant; for GSH content (liver homogenate): compared to the untreated group. Type of series: in vivo. The procedure:
(§2) Thirty female KM mice were used to establish an animal model of acute T. gondii infection. These were randomly divided into five groups: infected untreated, normal, infected with spiramycin treatment, infected with 1e treatment and infected with 3d treatment. Each group consisted of six mice. Four hours after infection, 100 mg/kg of the compounds was administered to the mice by gavage, once a day for 4 consecutive days, whereas the untreated group was administered the same dose of physiological saline. On the fifth day, blood from the eyes of mice was collected and they were sacrificed by cervical dislocation. Their abdominal cavity was rinsed with sterile physiological saline to collect the parasites/tachyzoites. These were counted under the light microscope, and the inhibition rate of parasites was calculated. The liver and spleen were dissected and liver and spleen indexes, serum alanine aminotransferase (ALT), aspartate aminotransferase (AST), and liver homogenate glutathione (GSH) and malonaldehyde (MDA) were determined.

In the next series the test system is T. gondii tachyzoites. As to the kind of experiment: In vivo anti-T. gondii activity, acute infection model in KM mice (intraperitoneal tachyzoite count). To be noted: T. gondii-infected KM mice, 100 mg/kg by gavage once a day for 4 days; for inhibitory rate of tachyzoites: ascitic fluid; for Amount of tachyzoite: intraperitoneal tachyzoites. Further details: species or system Toxoplasma gondii. The procedure: as §2

Series [2] concerns T. gondii RH strain tachyzoites. The experiment in a line: In vitro T. gondii growth inhibition in HeLa host cells (MTT). Type of series: cell-based, Toxoplasma gondii. To be noted: for SI (selectivity index): IC50 in HeLa cells/IC50 in T. gondii; for IC50: median inhibitory concentration, tachyzoite inhibition, HeLa host cells, 24 h. The procedure: as §1
[3] abbreviates: T. gondii-infected KM mice, compared with the untreated group.

As to `S=C1N=NC(c2cccs2)=N1` [compound 2, 3-(thiophen-2-yl)-1,2,4-triazole-5-thione], the selectivity value in the series with T. gondii (3[H]uracil incorporation method) is 4.58; in the series with T. gondii (qRT-PCR) it was 5.21.

By IC50 is commonly meant the concentration needed to halve the response being measured. The low end stands for greater potency in that assay, the high end for weaker potency in that assay. Consider Spiramycin [reference compound], for which the half-maximal inhibitory concentration (IC50) with HeLa cells came out at 189 µM. The “levels of MDA (liver homogenate)” value in series [1] (setting [3]) was “significantly decreased”. For the same compound, the spleen index result in series [1] (T. gondii-infected KM mice) was “subjugated”. Also, in the series with T. gondii tachyzoites, the “inhibitory rate of tachyzoites” value stood at 56.8% and the Amount of tachyzoite is given as 97.2 ×10^4. Also, in series [2], the “SI (selectivity index)” value was determined as 0.72 and the half-maximal inhibitory concentration (IC50) turned out to be 262 µM.

As to `C[C@H]1[C@H](C)CC[C@]2(C(=O)O)CC[C@]3(C)C(=CC[C@@H]4[C@@]5(C)C/C(=C\c6cn(-c7ccccc7Cl)nn6)C(=O)C(C)(C)[C@@H]5CC[C@]43C)[C@H]12` [1e, (1S,2R,4aS,6aS,6bR,8aR,12aR,12bR,14bS,E)-11-((1–(2-chlorophenyl)-1H-1,2,3-triazol-4-yl)methylene)-1,2,6a,6b,9,9,12a-heptamethyl-10-oxo-1,3,4,5,6,6a,6b,7,8,8a,9,10,11,12,12a,12b,13,14b-octadecahydropicene-4a(2H)-carboxylic acid], the IC50 with HeLa cells (Homo sapiens, HeLa) stood at 466 µM; in series [2] (Toxoplasma gondii), 240 µM. Also, the “GSH content (liver homogenate)” value in series [1] (T. gondii-infected KM mice) is reported as “significantly increase”. Besides, in series [1] (setting [3]), the “serum ALT and AST levels” value is recorded as “striking reduction”. Besides, in the series with T. gondii tachyzoites, the “inhibitory rate of tachyzoites” value was 37.0%. In addition, in the series with T. gondii tachyzoites, the Amount of tachyzoite is recorded as 141.8 ×10^4. Moreover, in series [2], the “SI (selectivity index)” value worked out at 1.95.

Compound `C[C@H]1[C@H](C)CC[C@]2(C(=O)OCCn3cnnc3-c3ccc([N+](=O)[O-])cc3)CC[C@]3(C)C(=CC[C@@H]4[C@@]5(C)CCC(O)C(C)(C)[C@@H]5CC[C@]43C)[C@H]12` (stereo partly drawn) [3d, 2 –(3-(4-nitrophenyl)-4H-1,2,4-triazol-4-yl)ethyl(1S,2R,4aS,6aS,6bR,8aR,12aR,12bR,14bS)-10-hydroxy-1,2,6a,6b,9,9,12a-heptamethyl-1,3,4,5,6,6a,6b,7,8,8a,9,10,11,12,12a,12b,13,14b-octadecahydropicene-4a(2H)-carboxylate] gave an IC50 in the series with HeLa cells (Homo sapiens, HeLa) of 227 µM. Moreover, in series [1] (T. gondii-infected KM mice), the “GSH content (liver homogenate)” value is given as “significantly increase” and the spleen index entry is recorded as “subjugated”. In series [1] (setting [3]), the “levels of MDA (liver homogenate)” value is given as “significantly decreased”; the “serum ALT and AST levels” value is reported as “striking reduction”. Further, in the series on T. gondii tachyzoites, the “inhibitory rate of tachyzoites” value is reported as 70.4% and the Amount of tachyzoite was 66.6 ×10^4. Further, the “SI (selectivity index)” value in series [2] came to 1.77. Besides, inhibition in series [2] (Toxoplasma gondii) was half-maximal at 128 µM (IC50).

A word on the melting point: it is the temperature, or range, at which the solid turns liquid. With `C[C@H]1[C@H](C)CC[C@]2(C(=O)OCC(=O)NCc3cn(-c4ccc(Cl)c(Cl)c4)nn3)CC[C@]3(C)C(=CC[C@@H]4[C@@]5(C)CCC(O)C(C)(C)[C@@H]5CC[C@]43C)[C@H]12` (stereo partly drawn) [2e, (1S,2R,4aS,6aS,6bR,8aR,12aR,12bR,14bS)-2-((1–(3,4-dichlorophenyl)-1H-1,2,3-triazol-4-yl)methylamino)-2-oxoethyl-10-hydroxy-1,2,6a,6b,9,9,12a-heptamethyl-1,2,3,4,4a,5,6,6a,6b,7,8,8a,9,10,11,12,12a,12b,13,14b-icosahydropicene-4a-carboxylate], the melting point was 203 to 204 °C. In the series with HeLa cells (Homo sapiens, HeLa), this compound displayed an IC50 above 1000 µM. Moreover, in series [2] (Toxoplasma gondii), the IC50 was above 1000 µM.

The compound `C[C@H]1[C@H](C)CC[C@]2(C(=O)OCC(=O)NCc3cn(-c4ccc(Cl)cc4)nn3)CC[C@]3(C)C(=CC[C@@H]4[C@@]5(C)CCC(O)C(C)(C)[C@@H]5CC[C@]43C)[C@H]12` (stereo partly drawn) [2b, (1S,2R,4aS,6aS,6bR,8aR,12aR,12bR,14bS)-2-((1–(4-chlorophenyl)-1H-1,2,3-triazol-4-yl)methylamino)-2-oxoethyl-10-hydroxy-1,2,6a,6b,9,9,12a-heptamethyl-1,2,3,4,4a,5,6,6a,6b,7,8,8a,9,10,11,12,12a,12b,13,14b-icosahydropicene-4a-carboxylate] returned a melting point of 176 to 178 °C. Further, in the series with HeLa cells (Homo sapiens, HeLa), the IC50 amounted to 329 µM. Moreover, the IC50 in series [2] (Toxoplasma gondii) is above 1000 µM.

In turn, `C[C@H]1[C@H](C)CC[C@]2(C(=O)O)CC[C@]3(C)C(=CC[C@@H]4[C@@]5(C)CC[C@H](O)C(C)(C)[C@@H]5CC[C@]43C)[C@H]12` [Ursolic Acid, Ursolic acid] gave an IC50 with HeLa cells (Homo sapiens, HeLa) of 44.8 µM. In addition, the “levels of MDA (liver homogenate)” value in series [1] (setting [3]) is recorded as “significantly decreased”. The spleen index result in series [1] (T. gondii-infected KM mice) is “subjugated”. Moreover, the “serum ALT and AST levels” value in series [1] (mouse, in vivo) was “striking reduction”. Besides, in the series on T. gondii tachyzoites, the “inhibitory rate of tachyzoites” value is 65.4% and the Amount of tachyzoite was 77.9 ×10^4. The “SI (selectivity index)” value in series [2] is reported as 0.62. Moreover, in series [2] (Toxoplasma gondii), half-maximal inhibition (IC50) required 72.2 µM.

`C[C@H]1[C@H](C)CC[C@]2(C(=O)OCC(=O)NCc3cn(-c4ccccc4)nn3)CC[C@]3(C)C(=CC[C@@H]4[C@@]5(C)CCC(O)C(C)(C)[C@@H]5CC[C@]43C)[C@H]12` (stereo partly drawn) [2a, (1S,2R,4aS,6aS,6bR,8aR,12aR,12bR,14bS)-2-oxo-2-((1-phenyl-1H-1,2,3-triazol-4-yl)methylamino)ethyl-10-hydroxy-1,2,6a,6b,9,9,12a-heptamethyl-1,2,3,4,4a,5,6,6a,6b,7,8,8a,9,10,11,12,12a,12b,13,14b-icosahydropicene-4a-carboxylate] came in with a melting point of 170 to 172 °C. The same compound registered a half-maximal inhibitory concentration (IC50) in the series on HeLa cells (Homo sapiens, HeLa) of 837 µM. Besides, the IC50 in series [2] (Toxoplasma gondii) is above 1000 µM.

For `C[C@H]1[C@H](C)CC[C@]2(C(=O)O)CC[C@]3(C)C(=CC[C@@H]4[C@@]5(C)C/C(=C\c6cn(-c7ccccc7)nn6)C(=O)C(C)(C)[C@@H]5CC[C@]43C)[C@H]12` [1a, (1S,2R,4aS,6aS,6bR,8aR,12aR,12bR,14bS,E)-1,2,6a,6b,9,9,12a-heptamethyl-10-oxo-11-((1-phenyl-1H-1,2,3-triazol-4-yl)methylene)-1,3,4,5,6,6a,6b,7,8,8a,9,10,11,12,12a,12b,13,14b-octadecahydropicene-4a(2H)-carboxylic acid], the melting point was above 250 °C. The IC50 in the series with HeLa cells (Homo sapiens, HeLa) is above 1000 µM. Also, the half-maximal inhibitory concentration (IC50) in series [2] (Toxoplasma gondii) is above 1000 µM.

As for `COc1ccc(-c2nncn2CCOC(=O)[C@]23CC[C@@H](C)[C@H](C)[C@H]2C2=CC[C@@H]4[C@@]5(C)CCC(O)C(C)(C)[C@@H]5CC[C@@]4(C)[C@]2(C)CC3)cc1` (stereo partly drawn) [3e, 2 –(3-(4-methoxyphenyl)-4H-1,2,4-triazol-4-yl)ethyl(1S,2R,4aS,6aS,6bR,8aR,12aR,12bR,14bS)-10-hydroxy-1,2,6a,6b,9,9,12a-heptamethyl-1,3,4,5,6,6a,6b,7,8,8a,9,10,11,12,12a,12b,13,14b-octadecahydropicene-4a(2H)-carboxylate], the melting point lay in the range of 233 to 235 °C. This compound had a 50% inhibitory concentration (IC50) with HeLa cells (Homo sapiens, HeLa) of 78.2 µM. The “SI (selectivity index)” value in series [2] is 0.67. In addition, the IC50 in series [2] (Toxoplasma gondii) stood at 116 µM.
